From ChEMBL document CHEMBL6182882, “Evodiamine-Based Nitroreductase Responsive Theranostic Agents for Treatment of Colon Cancer” (J Med Chem, 2025)
Activity calls are given as the source filed them. The rule behind the calls is not given here.

Legend:
HCT-116 [1] = assay: Antitumor activity against human HCT-116 cells xenografted in male nude mouse assessed as tumor growth inhibition at 0.5 mg/kg, ip administered twice daily for 14 consecutive days; format: functional; details: read-out: TGI
[2] = Toxicity in male nude mouse assessed as change in body weight at 0.5 mg/kg, ip administered twice daily for 14 consecutive days; format: organism-based; details: in vivo
[3] = (§1) Prodrug activation in phosphate buffer saline at pH 7.4 assessed as Escherichia coli nitroreductase mediated 3-fluoro-10-hydroxy-14-methyl-8,13,13b,14-tetrahydroindolo[2',3':3,4]pyrido[2,1-b]quinazolin-5(7H)-one formation by measuring fluorescence emission intensity at 25 uM incubated for 2 hrs in presence of NADH by fluorescence spectrophotometric analysis; details: isolated protein, pH 7.4, 2 h
HCT-116 [4] = assay: Cytotoxicity against human HCT-116 cells assessed as inhibition of cell growth incubated for 72 hrs under hypoxic conditions by CCK-8 assay; format: functional, cell-based; details: HCT-116, 72 h
A549 [5] = assay: Cytotoxicity against human A549 cells assessed as inhibition of cell growth incubated for 72 hrs under hypoxic conditions by CCK-8 assay; format: functional, cell-based; details: A549, 72 h
[6] = Cytotoxicity against human HUVEC cells assessed as inhibition of cell growth incubated for 72 hrs under normoxic condition by CCK-8 assay; format: toxicity, cell-based
[7] = Metabolic stability in ICR mouse liver microsomes assessed as terminal half life; format: ADME, Microsome; details: read-out: beta t1/2
[8] = Metabolic stability in ICR mouse liver microsomes assessed as intrinsic clearance; format: ADME, Microsome; details: read-out: CLH
Fusobacterium nucleatum = assay: Antibacterial activity against Fusobacterium nucleatum; format: functional
[9] = as §1, with “measuring fold increase in” for “measuring”; details: isolated protein, pH 7.4, 2 h
[10] = as §1, with “10” for “25”, “of 1 to 7 microg/ml NTR and” for “of”; details: isolated protein, pH 7.4, 2 h
[11] = as §1, with “incubated for 0.5 to 2 hrs” for “incubated for 2 hrs”, “presence of 1 to 7 microg/ml NTR and NADH by” for “presence of NADH by”; details: isolated protein, pH 7.4, 25 µM, time 0.5-2 hrs
HCT-116 [12] = assay: Cytotoxicity against human HCT-116 cells assessed as inhibition of cell growth incubated for 72 hrs under normoxic conditions by CCK-8 assay; format: functional, cell-based; details: HCT-116, 72 h
A549 [13] = assay: Cytotoxicity against human A549 cells assessed as inhibition of cell growth incubated for 72 hrs under normoxic conditions by CCK-8 assay; format: functional, cell-based; details: A549, 72 h
HCT-116 [14] = assay: Induction of cell cycle arrest in human HCT-116 cells assessed as accumulation of cells at G1 phase at 0.04 uM measured after 24 hrs by flow cytometric analysis (reference value: 48.40 %); format: functional
HCT-116 [15] = assay: Induction of cell cycle arrest in human HCT-116 cells assessed as accumulation of cells at S phase at 0.04 uM measured after 24 hrs by flow cytometric analysis (reference value: 33.15 %); format: functional
HCT-116 [16] = assay: Induction of cell cycle arrest in human HCT-116 cells assessed as accumulation of cells at G1 phase at 0.2 uM measured after 24 hrs by flow cytometric analysis (reference value: 48.40 %); format: functional
A549 [17] = assay: Induction of cell cycle arrest in human A549 cells assessed as accumulation of cells at G2/M phase at 1.0 uM measured after 24 hrs by flow cytometric analysis (reference value: 3.81%); format: functional
HCT-116 [18] = assay: Induction of cell cycle arrest in human HCT-116 cells assessed as accumulation of cells at G1 phase at 1.0 uM measured after 24 hrs by flow cytometric analysis (reference value: 48.40 %); format: functional
A549 [19] = assay: Induction of cell cycle arrest in human A549 cells assessed as accumulation of cells at G2/M phase at 0.2 uM measured after 24 hrs by flow cytometric analysis (reference value: 3.81%); format: functional
A549 [20] = assay: Induction of cell cycle arrest in human A549 cells assessed as accumulation of cells at G2/M phase at 0.04 uM measured after 24 hrs by flow cytometric analysis relative to control; format: functional
HCT-116 [21] = assay: Induction of cell cycle arrest in human HCT-116 cells assessed as accumulation of cells at S phase at 1.0 uM measured after 24 hrs by flow cytometric analysis (reference value: 33.15 %); format: functional
HCT-116 [22] = assay: Induction of cell cycle arrest in human HCT-116 cells assessed as accumulation of cells at S phase at 0.2 uM measured after 24 hrs by flow cytometric analysis (reference value: 33.15 %); format: functional
HCT-116 [23] = assay: Induction of cell cycle arrest in human HCT-116 cells assessed as accumulation of cells at G2/M phase at 0.04 uM measured after 24 hrs by flow cytometric analysis (reference value: 18.45 %); format: functional
HCT-116 [24] = assay: Induction of cell cycle arrest in human HCT-116 cells assessed as accumulation of cells at G2/M phase at 0.2 uM measured after 24 hrs by flow cytometric analysis (reference value: 18.45 %); format: functional
HCT-116 [25] = assay: Induction of cell cycle arrest in human HCT-116 cells assessed as accumulation of cells at G2/M phase at 1.0 uM measured after 24 hrs by flow cytometric analysis (reference value: 18.45 %); format: functional
HCT-116 [26] = assay: Induction of apoptosis in human HCT-116 cells assessed as apoptotic cells at 0.04 to 1.0 uM measured after 48 hrs by flow cytometric analysis (reference value: 4.57%); format: functional; details: dose 0.04-1 µM
A549 [27] = assay: Induction of apoptosis in human A549 cells assessed as apoptotic cells at 0.04 to 1.0 uM measured after 48 hrs by flow cytometric analysis (reference value: 6.44%); format: functional; details: dose 0.04-1 µM
[28] = molecular target: T1, DNA topoisomerase 1 (Homo sapiens) (UniProt P11387); assay: Inhibition of topoisomerase 1 (unknown origin) […] activity using pBR322 DNA as substrate at 125 to 250 uM incubated for 15 mins by ethidium bromide staining based agarose gel electrophoresis; details: dose 125-250 µM
T1 sequence (whole entry): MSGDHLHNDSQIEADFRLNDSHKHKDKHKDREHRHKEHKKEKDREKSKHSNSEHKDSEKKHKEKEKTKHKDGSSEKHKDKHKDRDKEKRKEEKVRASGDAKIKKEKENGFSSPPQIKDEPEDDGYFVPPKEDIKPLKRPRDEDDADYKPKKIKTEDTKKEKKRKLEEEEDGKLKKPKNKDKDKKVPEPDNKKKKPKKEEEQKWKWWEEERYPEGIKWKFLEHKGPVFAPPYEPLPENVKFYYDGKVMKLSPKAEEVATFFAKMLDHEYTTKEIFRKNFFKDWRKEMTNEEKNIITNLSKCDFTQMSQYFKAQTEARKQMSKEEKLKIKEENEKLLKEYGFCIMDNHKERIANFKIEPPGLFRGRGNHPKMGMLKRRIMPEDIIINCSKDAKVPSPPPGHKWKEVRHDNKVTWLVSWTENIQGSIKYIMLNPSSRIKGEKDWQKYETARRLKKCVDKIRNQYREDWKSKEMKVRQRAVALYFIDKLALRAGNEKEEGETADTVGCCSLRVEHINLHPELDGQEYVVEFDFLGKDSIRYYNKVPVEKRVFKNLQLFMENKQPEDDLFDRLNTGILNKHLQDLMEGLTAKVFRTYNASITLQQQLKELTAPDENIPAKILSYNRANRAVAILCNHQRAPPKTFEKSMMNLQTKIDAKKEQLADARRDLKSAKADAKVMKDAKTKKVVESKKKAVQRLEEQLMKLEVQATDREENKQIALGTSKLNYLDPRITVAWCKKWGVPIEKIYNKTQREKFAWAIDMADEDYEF

HCT-116 [29] = assay: Antitumor activity against human HCT-116 cells xenografted in male nude mouse assessed as tumor growth inhibition at 10 mg/kg, ip administered twice daily for 14 consecutive days; format: functional; details: read-out: TGI
[30] = Toxicity in male nude mouse assessed as change in body weight at 10 mg/kg, ip administered twice daily for 14 consecutive days; format: organism-based; details: in vivo
[31] = Drug uptake in male nude mouse kidney xenografted in human HCT-116 cells at 10 mg/kg, […] administered via tail vein and measured at 12 hrs post injection by fluorescence imaging analysis; format: ADME, organism-based; details: in vivo
[32] = Drug uptake in male nude mouse tumor xenografted in human HCT-116 cells at 10 mg/kg, […] administered via tail vein and measured at 12 hrs post injection by fluorescence imaging analysis; format: ADME, organism-based, Neoplasm; details: in vivo
Bacteroides fragilis = assay: Antibacterial activity against Bacteroides fragilis; format: functional
HCT-116 [33] = assay: Binding affinity to NTR in human HCT-116 cells assessed as increase in fluorescence intensity at 25 uM incubated for 2 hrs under 2 to 10 % hypoxic condition by confocal fluorescence imaging based analysis; format: cell-based
A549 [34] = assay: Binding affinity to NTR in human A549 cells assessed as increase in fluorescence intensity at 25 uM incubated for 2 hrs under 2 to 10 % hypoxic condition by confocal fluorescence imaging based analysis; format: cell-based
HUVEC = assay: Binding affinity to NTR in human HUVEC cells assessed as fluorescence intensity at 10 to 100 uM incubated for 2 hrs by confocal fluorescence microscopic analysis; format: cell-based; details: dose 10-100 µM
HCT-116 [35] = assay: Binding affinity to NTR in human HCT-116 cells assessed as increase in fluorescence intensity at 10 to 100 uM incubated for 2 hrs by confocal fluorescence microscopic analysis; format: cell-based; details: dose 10-100 µM
A549 [36] = assay: Binding affinity to NTR in human A549 cells assessed as increase in fluorescence intensity at 10 to 100 uM incubated for 2 hrs by confocal fluorescence microscopic analysis; format: cell-based; details: dose 10-100 µM
[37] = Drug localization in lysosome of human HCT-116 cells at 25 uM incubated for 2 hrs by Lyso-tracker red dye based confocal imaging analysis; format: ADME, subcellular; details: hct-116, 2 h
[38] = Drug localization in lysosome of human A549 cells at 25 uM incubated for 2 hrs by Lyso-tracker red dye based confocal imaging analysis; format: ADME, subcellular; details: a549, 2 h
[39] = Drug localization in Mitochondria of human HCT-116 cells at 25 uM incubated for 2 hrs by Mito-tracker green dye based confocal imaging analysis; format: ADME; details: hct-116, 2 h
[40] = Drug localization in endoplasmic reticulum of human HCT-116 cells at 25 uM incubated for 2 hrs by ER-tracker red dye based confocal imaging analysis; format: ADME, subcellular; details: hct-116, 2 h
[41] = Drug localization in Cell membrane of human HCT-116 cells at 25 uM incubated for 2 hrs by Dio- tracker green dye based confocal imaging analysis; format: ADME, cell membranes; details: hct-116, 2 h
[42] = Drug localization in nucleus of human HCT-116 cells at 25 uM incubated for 2 hrs by […] dye based confocal imaging analysis; format: ADME, subcellular; details: hct-116, 2 h

In the case of `CC[C@@]1(O)C(=O)OCc2c1cc1n(c2=O)Cc2cc3c(CN(C)C)c(O)ccc3nc2-1` [TOPOTECAN], the inhibition in vivo at 0.5 mg/kg (HCT-116 [1]) is reported as 82.5% and the Activity [2] is reported as “Toxic”.
For `CN1c2ccc(F)cc2C(=O)N2CCc3c([nH]c4ccc(OC(=O)/C=C/C(=O)OCc5cc6ccc(OCc7ccccc7)cc6oc5=O)cc34)C21` (stereo not drawn), the Drug metabolism [3] was “metabolite_notdetected”.
For `CN1c2ccc(F)cc2C(=O)N2CCc3c([nH]c4ccc(OC(=O)CCC(=O)OCc5cc6ccc(OCc7ccc([N+](=O)[O-])cc7)cc6oc5=O)cc34)C21` (stereo not drawn), the Drug metabolism [3] was “metabolite_detected”.
Work on `CN1c2ccc(F)cc2C(=O)N2CCc3c([nH]c4ccc(O)cc34)C21` (stereo not drawn) yielded an IC50 (HCT-116 [4]) of 15 nM, an IC50 (A549 [5]) of 15 nM and an IC50 at 72 h [6] of 44 nM. The half-life [7] was 0.164 h, the CLint scaled [8] was 555 mL/min/kg and the MIC50 (Fusobacterium nucleatum) was > 64 µg/mL.
With `CN1c2ccc(F)cc2C(=O)N2CCc3c([nH]c4ccc(OC(=O)/C=C/C(=O)OCc5cc6ccc(OCc7ccc([N+](=O)[O-])cc7)cc6oc5=O)cc34)C21` (stereo not drawn) the Drug metabolism [3] was “metabolite_detected”, the “fold change (FC)” value [9] was 14 and the Drug metabolism [10] was “metabolite_detected”. For the same molecule, the Drug metabolism [11] was “metabolite_detected”, the IC50 (HCT-116 [4]) was 71 nM and the IC50 (A549 [5]) was 38 nM. For the same molecule, the IC50 (HCT-116 [12]) was 145 nM, the IC50 (A549 [13]) was 255 nM and the IC50 at 72 h [6] was 120 nM. For the same molecule, the Activity (HCT-116 [14]) was 43.77%, the Activity (HCT-116 [15]) was 32.22% and the Activity (HCT-116 [16]) was 7.74%. For the same molecule, the Activity (A549 [17]) was 59.51%, the Activity (HCT-116 [18]) was 0.56% and the Activity (A549 [19]) was 47.03%. For the same molecule, the Activity (A549 [20]) was 10.87%, the Activity (HCT-116 [21]) was 2.78% and the Activity (HCT-116 [22]) was 17.36%. The Activity (HCT-116 [23]) was 24.01%, the Activity (HCT-116 [24]) was 74.9% and the Activity (HCT-116 [25]) was 96.66%. The Activity (HCT-116 [26]) was 13.04%, the Activity (A549 [27]) was 18.27% and the inhibition [28] was “Weak_effect”. The half-life [7] was 9.53 h, the CLint scaled [8] was 9.54 mL/min/kg and the inhibition in vivo at 10 mg/kg (HCT-116 [29]) was 76.1%. The Activity [30] was “Non-toxic”, the Drug uptake [31] was “Active” and the Drug uptake [32] was “Active”. The MIC50 (Bacteroides fragilis) was > 64 µg/mL, the Activity (HCT-116 [33]) was “Active” and the Activity (A549 [34]) was “Active”. The Activity (HUVEC) was “Active; Weak Fluorescence Observed”, the Activity (HCT-116 [35]) was “Active; Stronger Fluorescence Intensity Observed” and the Activity (A549 [36]) was “Active”. The Drug uptake [37] was “Active”, the Drug uptake [38] was “Active” and the Drug uptake [39] was “Active”. For the same molecule, the Drug uptake [40] was “Active”, the Drug uptake [41] was “Active” and the Drug uptake [42] was “Active”.
In the case of `CN1c2ccc(F)cc2C(=O)N2CCc3c([nH]c4ccc(OC(=O)OCc5cc6ccc(OCc7ccc([N+](=O)[O-])cc7)cc6oc5=O)cc34)C21` (stereo not drawn), the Drug metabolism [3] is reported as “metabolite_detected”.
